Reference: paper PMC10303159, “Conjugation of Triterpenic Acids of Ursane and Oleanane Types with Mitochondria-Targeting Cation F16 Synergistically Enhanced Their Cytotoxicity against Tumor Cells” (Membranes, 2023)
Counter-ions that a name gives are not always drawn.

Legend:
[1] = tested on: A549 cells (human lung carcinoma); experiment: MTT cytotoxicity assay, A549; format: cell-based; conditions: for IC50: MTT assay, 48 h of treatment, mean ± SEM
Excerpt: (§1) All cell lines used in this study (human non-small cell lung cancer—H1299 (Accession Number—CRL-5803), human lung carcinoma—A549 (Accession Number—CCL-185), human breast adenocarcinoma—MCF-7 (Accession Number—HTB-22), human breast ductal carcinoma—BT474 (Accession Number—HTB-20)) were purchased from American Type Culture Collection (ATCC, Manassas, VA, USA). Human primary dermal fibroblasts (HPDF) derived from a patch of skin of healthy donors (n = 3) were obtained from the biobank of the Institute for Regenerative Medicine, Lomonosov Moscow State University, collection ID: MSU_FB (https://human.depo.msu.ru (accessed on 14 September 2021)). Cells were grown in DMEM media supplemented with 10% fetal bovine serum, 100 μg/mL gentamycin, and 2 mM of glutamine at 37 °C in a 5% CO2 atmosphere.
(§2) To carry out the MTT assay, 3500 cells per well were seeded in 96-well plates. […] DMSO was used as a control. […] After removing the thiazol-containing medium, 150 μL of isopropyl alcohol (supplemented with 40 mM HCl and 0.1% NP-40) was added to dissolve the MTT-formazan salt. The absorbance at 570 and 630 nm (reference) was measured using a BioRad iMark microplate reader (BioRad, Hercules, CA, USA). Four biological replicates were used for the experiment. The results were processed with Excel software (version number: 14.0.6023.1000 (32-bit)). IC50 values were calculated by using AAT Bioquest online calculator (https://www.aatbio.com/tools/ic50-calculator, accessed on 15 May 2023) and are represented as the mean ± SEM.

[2] = tested on: MCF-7 cells (human breast adenocarcinoma); experiment: MTT cytotoxicity assay, MCF-7; format: cell-based; conditions: for IC50: Homo sapiens, MCF7, MTT assay, 48 h of treatment, mean ± SEM
Excerpt: as §1
(§3) To carry out the MTT assay, 3500 cells per well were seeded in 96-well plates. A day after the seeding, triterpenoids or their derivatives dissolved in DMSO were added. DMSO was used as a control. At 48 h after cell seeding, 10 μL of 5 mg/mL Thiazolyl Blue (Paneko, Russia) solution was added to each well and cells were kept for 3 h at 37 °C in a CO2 incubator. After removing the thiazol-containing medium, 150 μL of isopropyl alcohol (supplemented with 40 mM HCl and 0.1% NP-40) was added to dissolve the MTT-formazan salt. The absorbance at 570 and 630 nm (reference) was measured using a BioRad iMark microplate reader (BioRad, Hercules, CA, USA). Four biological replicates were used for the experiment. The results were processed with Excel software (version number: 14.0.6023.1000 (32-bit)). IC50 values were calculated by using AAT Bioquest online calculator (https://www.aatbio.com/tools/ic50-calculator, accessed on 15 May 2023) and are represented as the mean ± SEM.

[3] = tested on: H1299 cells (human non-small cell lung cancer); experiment: MTT cytotoxicity assay, H1299; format: cell-based; conditions: mean ± SEM
Excerpt: as §1, §3

[4] = tested on: BT474 cells (human breast ductal carcinoma); experiment: MTT cytotoxicity assay, BT474; format: cell-based; conditions: BT-474, 48 h of treatment, mean ± SEM
Excerpt: as §1, §3

[5] = tested on: Human primary dermal fibroblasts (HPDF); experiment: MTT cytotoxicity assay, HPDF; format: cell-based; conditions: for IC50: Homo sapiens, Fibroblast, MTT assay, 48 h of treatment, mean ± SEM; for Selectivity against tumor cells and human fibroblasts: in words
Excerpt: as §1, §2

rat liver mitochondria [6] = experiment: Mitochondrial membrane potential (TPP-sensitive electrode); format: biochemical; conditions: glutamate + malate or succinate + rotenone, Figure 5
Method: (§4) Mitochondria were obtained from the liver of male Wistar rats (210–250 g) using the differential centrifugation method. The detailed procedure and composition of the isolation media were described earlier. The suspension of isolated mitochondria contained about 60–70 mg of mitochondrial protein per ml (determined by the Bradford method).
The mitochondrial membrane potential (Δψ) was measured using a penetrating tetraphenylphosphonium bromide (TPP) cation and a TPP-sensitive electrode (Nico-Analyte Ltd., Moscow, Russia) as described previously. The concentration of mitochondrial protein was 1 mg/mL.

rat liver mitochondria [7] = experiment: Respiration of isolated mitochondria fueled by succinate; format: biochemical
Method: as §4
(§5) The rate of O2 consumption by mitochondrial samples was estimated using Oxygraph Plus (Hansatech Instruments Ltd., Pentney, King’s Lynn, UK). The reaction medium included 200 mM sucrose, 20 mM KCl, 0.5 mM EGTA, 5 mM KH2PO4, and 10 mM Hepes/KOH, pH 7.4. The following combinations of substrates and reagents were used: 2.5 mM potassium glutamate + 2.5 mM potassium malate and 5 mM potassium succinate + 1 µM rotenone. Under these conditions, it is possible to assess the oxygen-consuming capacity of mitochondria through complexes I and II of the electron transport chain. To determine the rates of the phosphorylating respiration (State 3) and uncoupled respiration (State 3UDNP) of the mitochondria, 200 µM ADP and 50 µM 2,4-dinitrophenol (DNP) were added sequentially. The concentration of mitochondrial protein was 1 mg/mL.

rat liver mitochondria [8] = experiment: Respiration of isolated mitochondria fueled by glutamate and malate; format: biochemical
Method: as §4, §5

BT474 cells = experiment: Oxidative stress assay (Muse Oxidative Stress Kit), BT474; format: cell-based, human; conditions: BT474, 3 μM
Method: Oxidative stress was assessed after cell culture and incubation (as described above). For this, cells were harvested by trypsinization, washed with ice-cold PBS buffer (pH 7.4), and centrifuged (1000 rpm, 5 min). The resulting cells were resuspended in PBS. Cell population analysis for oxidative stress was performed on a Muse cell analyzer (Merck Millipore, Burlington, MA, USA) using the Muse Oxidative Stress Kit (MCH100111) according to the manufacturer’s protocol.

[9] = Homo sapiens, NCI-H1299, 48 h of treatment

Structure (SMILES)	IC50 ([1]; Homo sapiens, A549, 48 h) [µM]	IC50 [1] [µM]	IC50 [2] [µM]	IC50 [3, 9] [µM]	IC50 [4] [µM]	IC50 [5] [µM]	ADP/O (rat liver mitochondria [7]; 20 μM)	RC (state 3/state 4) (rat liver mitochondria [7]; 20 μM) [rel. un.]	State 2 respiration (rat liver mitochondria [7]; 20 μM) [nmol O2/min/mg Protein]	State 3UDNP respiration (rat liver mitochondria [7]; 20 μM) [nmol O2/min/mg Protein]	State 3 respiration (rat liver mitochondria [7]; 20 μM) [nmol O2/min/mg Protein]	State 4 respiration (rat liver mitochondria [7]; 20 μM) [nmol O2/min/mg Protein]	Selectivity against tumor cells and human fibroblasts [5]	ADP/O (rat liver mitochondria [8]; 20 μM) [rel. un.]	RC (state 3/state 4) (rat liver mitochondria [8]; 20 μM) [rel. un.]	State 2 respiration (rat liver mitochondria [8]; 20 μM) [nmol O2/min/mg Protein]	State 3UDNP respiration (rat liver mitochondria [8]; 20 μM) [nmol O2/min/mg Protein]	State 3 respiration (rat liver mitochondria [8]; 20 μM) [nmol O2/min/mg Protein]	State 4 respiration (rat liver mitochondria [8]; 20 μM) [nmol O2/min/mg Protein]	further results
CC1(C)CCC2(C(=O)OCCCC[n+]3ccc(C=Cc4c[nH]c5ccccc45)cc3)CCC3(C)C(=CCC4C5(C)CC(O)C(O)C(C)(C)C5CCC43C)C2C1 (stereo not drawn) (as salt: bromide) [MA-F16, N-{4-[(2α,3β-dihydroxy-olean-12-en-28-oyl)-butyl]-(E)-4-[2-(1H-indol-3-yl)-vinyl]}pyridinium bromide]	–	–	–	–	–	–	–	–	–	–	–	–	–	–	–	–	–	–	–	melting point: 206 to 208 °C
CC1CCC2(C(=O)OCCCC[n+]3ccc(C=Cc4c[nH]c5ccccc45)cc3)CCC3(C)C(=CCC4C5(C)CC(O)C(O)C(C)(C)C5CCC43C)C2C1C (stereo not drawn) [CA-F16, N-{4-[(2α,3β-dihydroxy-urs-12-en-28-oyl)-butyl]-(E)-4-[2-(1H-indol-3-yl)-vinyl]}pyridinium bromide]	1.9	1.87 ± 0.14	1.89 ± 0.27	4.01 ± 1.69	6.7 ± 0.35	1.15 ± 0.38	–	–	–	–	–	–	–	–	–	–	–	–	–	Cytotoxicity higher than that of ursolic acid ([1]; A549 line, ratio of IC50 values): 36 times
C[C@H]1[C@H](C)CC[C@]2(C(=O)O)CC[C@]3(C)C(=CC[C@@H]4[C@@]5(C)CC[C@H](O)C(C)(C)[C@@H]5CC[C@]43C)[C@H]12 [UA, ursolic acid, reference compound]	68.9	68.9 ± 19.6	40.6 ± 12.5	97.6 ± 5.63	110 ± 19.1	59.1 ± 7.73	1.43 ± 0.04 rel. un.	3.32 ± 0.12	15.19 ± 0.27	75.91 ± 1.74	49.15 ± 0.30	15.54 ± 0.62	have not shown selectivity	2.82 ± 0.03	2.13 ± 0.09	8.01 ± 0.15	36.66 ± 1.47	26.92 ± 0.64	12.65 ± 0.32	Effect on membrane potential of organelles (rat liver mitochondria [6]): did not show such an ability
CC1(C)CCC2(C(=O)OCCCC[n+]3ccc(C=Cc4c[nH]c5ccccc45)cc3)CCC3(C)C(=CCC4C5(C)CC(O)C(O)C(C)(C)C5CCC43C)C2C1 (stereo not drawn) [MA-F16, N-{4-[(2α,3β-dihydroxy-olean-12-en-28-oyl)-butyl]-(E)-4-[2-(1H-indol-3-yl)-vinyl]}pyridinium bromide]	13.5 ± 2.02	–	7.44 ± 0.78	10.5 ± 2.44	11.1 ± 2.51	9.3 ± 2.56	–	–	–	–	–	–	–	–	–	–	–	–	–	–
CC1CCC2(C(=O)OCCCC[n+]3ccc(C=Cc4c[nH]c5ccccc45)cc3)CCC3(C)C(=CCC4C5(C)CC(O)C(O)C(C)(C)C5CCC43C)C2C1C (stereo not drawn) (as salt: bromide) [CA-F16, N-{4-[(2α,3β-dihydroxy-urs-12-en-28-oyl)-butyl]-(E)-4-[2-(1H-indol-3-yl)-vinyl]}pyridinium bromide]	–	–	–	–	–	–	–	–	–	–	–	–	–	–	–	–	–	–	–	melting point: 219 to 221 °C
CC1(C)CC[C@]2(C(=O)O)CC[C@]3(C)C(=CC[C@@H]4[C@@]5(C)CC[C@H](O)C(C)(C)[C@@H]5CC[C@]43C)[C@@H]2C1 [OA, oleanolic acid, reference compound]	236	234 ± 22.1	114 ± 12.6	–	150 ± 25.1	156 ± 10.4	1.45 ± 0.05 rel. un.	2.80 ± 0.09	15.06 ± 0.15	69.92 ± 0.68	48.00 ± 0.60	17.18 ± 0.78	have not shown selectivity	2.53 ± 0.12	2.11 ± 0.12	8.39 ± 0.09	35.74 ± 0.66	27.31 ± 0.31	13.23 ± 0.18	Effect on membrane potential of organelles (rat liver mitochondria [6]): slightly reduce the membrane potential; IC50 ([3]; 48 h of treatment): 139 ± 6.85 µM; IC50 ([3]; Homo sapiens, NCI-H1299, 48 h, 48 h of treatment): 139 µM
CC1CCC2(C(=O)OCCCC[n+]3ccc(C=Cc4c[nH]c5ccccc45)cc3)CCC3(C)C(=CCC4C5(C)CCC(O)C(C)(C)C5CCC43C)C2C1C (stereo not shown) [UA-F16]	2.4 ± 0.3	–	1.36 ± 0.74	2.8 ± 0.25	5.18 ± 0.15	4.98 ± 0.9	0.86 ± 0.05 *#^γ rel. un.	1.37 ± 0.11	15.86 ± 0.40	64.18 ± 3.81	43.98 ± 1.31	32.20 ± 1.68	highest selectivity	0.74 ± 0.14	1.02 ± 0.02	14.75 ± 0.21	28.29 ± 1.18	19.35 ± 0.90	19.06 ± 1.11	Chou–Talalay combination index (CI) ([2]; MCF7 cells, based on IC50 values for parent acid, F16 [23] and conjugate, CI < 1 synergism): 0.05; ADP/O (rat liver mitochondria [7]; 10 μM): 1.28 ± 0.04 rel. un.; RC (state 3/state 4) (rat liver mitochondria [7]; 10 μM): 2.65 ± 0.07 rel. un.; State 2 respiration (rat liver mitochondria [7]; 10 μM): 14.42 ± 0.24 nmol O2/min/mg Protein; State 3UDNP respiration (rat liver mitochondria [7]; 10 μM): 67.34 ± 2.12 nmol O2/min/mg Protein; State 3 respiration (rat liver mitochondria [7]; 10 μM): 46.39 ± 0.30 nmol O2/min/mg Protein; State 4 respiration (rat liver mitochondria [7]; 10 μM): 17.51 ± 0.23 nmol O2/min/mg Protein; Effect on level of ROS-positive cells (BT474 cells): significantly increase the level of ROS-positive cells; Selectivity index (SI) ([5]; between tumor cells H1299, A549 and MCF-7 and fibroblasts): 1.8–3.7; ADP/O (rat liver mitochondria [8]; 10 μM): 2.65 ± 0.05 rel. un.; RC (state 3/state 4) (rat liver mitochondria [8]; 10 μM): 2.20 ± 0.04 rel. un.; State 2 respiration (rat liver mitochondria [8]; 10 μM): 7.70 ± 0.33 nmol O2/min/mg Protein; State 3UDNP respiration (rat liver mitochondria [8]; 10 μM): 35.23 ± 0.89 nmol O2/min/mg Protein; State 3 respiration (rat liver mitochondria [8]; 10 μM): 25.89 ± 0.86 nmol O2/min/mg Protein; State 4 respiration (rat liver mitochondria [8]; 10 μM): 11.78 ± 0.22 nmol O2/min/mg Protein
